The source of these data is patent US6455526B1, “Biodegradable polymer encapsulated pharmaceutical compositions and method for preparing the same” (Aventis Pharmaceuticals, Inc., priority 1998, dated 2002).

One assay deals with Male Wistar rats. The experiment in a line: Chronic Mild Stress Model of Depression (CMS), sucrose intake. As to conditions: for Sucrose intake in control animals / Sucrose intake in stressed animals: five weeks; for Sucrose intake in stressed animals: treatment effect. Type of assay: in vivo, rat. An excerpt:
CMS uses mild stressors, such as food and water deprivation, cage tilts, changes of cage mates, etc. Over a period of weeks of exposure to the mild stressors, the animals gradually reduce their consumption of a highly preferred sucrose solution which persists (in untreated animals) for several weeks following the cessation of stress. This decreased sensitivity to reward (the sucrose solution) reflects anhedonia, a symptom of a Major Depressive Episode (see for example, Behavioral Pharmacol. 5: Suppl.1, p. 86 (1994) where lithium, carbamazepine and ketoconazole were evaluated in CMS; Psychopharmacology 93:358-364 (1987) where a tricyclic antidepressant was evaluated in CMS; Behavioral Pharmacology: 5:344-350 (1994) where a catechol-O-methyl transferase inhibitor was evaluated in CMS).
Male Wistar rats were brought into the laboratory two months before the start of the experiment at which time they weighed approximately 300 grams. Except as described below, the animals were singly housed, with food and water freely available, and maintained on a 12 hour light/dark cycle (lights on at 8AM) at a temperature of about 22° C.
The animals were first trained to consume a 1% sucrose solution; training consisted of eight 1 hour baseline tests in which sucrose was presented, in the home cage, following 14 hours food and water deprivation; intake was measured by weighing pre-weighed bottles containing the sucrose solution at the end of the test. Subsequently, sucrose consumption was monitored, under similar conditions, at weekly intervals throughout the whole experiment.
On the basis of their sucrose intakes in the final baseline test, the animals were divided into two matched groups. One group of animals was subjected to a chronic mild stress procedure for a period of 9 consecutive weeks. Each week of stress regime consisted of: two periods of food or water deprivation (12 and 14 hour), two periods of 45 degree cage tilt (12 and 14 hour+), two periods of intermittent overnight illumination (lights on and off every 2 hours), two 14 hour periods of soiled cage (200 ml water in sawdust bedding), two 14 hour periods of paired housing, two 14 hour periods of low intensity stroboscopic illumination (150 flashes/min). Stressors were applied continuously throughout the day and night, and scheduled randomly. Control animals were housed in a separate room and had no contract with the stressed animals. They were deprived of food and water for the 14 hours preceding each sucrose test, but otherwise food and water were freely available in the home cage. On the basis of their sucrose intake scores following 3 weeks of stress, both stressed and control animals were each divided further into matched subgroups (n=8), and for subsequent five weeks they received daily administrations of vehicle (1 ml/kg, intraperitoneally (ip)) imipramine (10 mg/kg, ip) or MDL 100,907 (0.002, 0.02 and 0.2 mg/kg orally). All drug injections were in a volume of 1 ml/kg body weight. Drugs were administered at 10AM and sucrose tests were carried out 24 hours following the last drug treatment. After five weeks, the treatments were terminated and after one week of withdrawal a final sucrose test was carried out. Stress was continued throughout the period of treatment and withdrawal.
Results were analyzed by multiple analysis of variance, followed by Fisher's LSD test for post hoc comparisons of means.

In the next assay the test system is myocardial tissue. The following applies: cited from earlier work.
In assay [1] the test system is A10 vs. A9 neuronal activity. The following applies: after chronic administration; cited from earlier work.
Assay [2] has as its system amphetamine-stimulated locomotion. The following applies: in vivo; cited from earlier work.
The test system of another assay is prepulse inhibition. The following applies: cited from earlier work.
Where [3] appears, read: 0.002, 0.02 and 0.2 mg/kg orally daily.

Consider `CN(C)CCCN1c2ccccc2CCc2ccccc21` [Imipramine, reference compound], for which, in the assay on Male Wistar rats (10 mg/kg, ip daily), the “Sucrose intake in control animals” value is “no significant effect” and the “Sucrose intake in stressed animals” value is recorded as “gradual increase of sucrose intake”. In the assay on Male Wistar rats (10 mg/kg, ip, after five weeks of treatment), the “Sucrose intake of drug-treated stressed animals vs drug- and saline-treated controls” value is listed as “no significant differences”. In the assay on Male Wistar rats (10 mg/kg, ip, after four weeks of treatment), the “Sucrose intake in stressed animals vs Week 0 scores” value is “significantly increased”. Further, the “Increase of sucrose intake in stressed animals after withdrawal” value with Male Wistar rats (10 mg/kg, ip, one week after withdrawal) is recorded as “maintained at similar level”.

Regarding `COc1cccc(C(O)C2CCN(CCc3ccc(F)cc3)CC2)c1OC` (stereo not drawn) [MDL 100,907, (+)-α-(2,3-dimethoxyphenyl)-1-[2-(4-fluorophenyl)ethyl]-4-piperidinemethanol], the “Duration of the action potential of myocardial tissue” value in the assay on myocardial tissue was “increases”. Further, the “Effects on A10 vs. A9 neuronal activity” value in assay [1] is reported as “selective effects”. Further, the Amphetamine-stimulated locomotion result in assay [2] is “blockade”. Besides, in the assay with Male Wistar rats (0.002 mg/kg orally), the “Sucrose intake in stressed animals throughout the whole treatment period” value is reported as “no significant effect”. For the same compound, the “Sucrose solution drunk by stressed animals at end of treatment (Week 5)” value in the assay on Male Wistar rats (0.02 mg/kg orally) is on record as “comparable to that of vehicle-treated controls”. In addition, the “Sucrose intake in stressed animals vs initial scores (Week 0)” value in the assay on Male Wistar rats (0.02 mg/kg orally, after two weeks of treatment) is reported as “significantly increased”. Further, the “Sucrose solution drunk by stressed animals at end of treatment (Week 5)” value in the assay on Male Wistar rats (0.2 mg/kg orally) is reported as “comparable to that of vehicle-treated controls”. Besides, the “Sucrose intake in stressed animals vs initial scores (Week 0)” value in the assay on Male Wistar rats (0.2 mg/kg orally, after three weeks of treatment) is recorded as “significantly increased”. In addition, in the assay with Male Wistar rats (0.002, 0.02, 0.2 mg/kg orally), the “Sucrose intake in control animals one week after withdrawal” value is “not significantly changed” and the “Sucrose intake in stressed animals one week after withdrawal” value was “not significantly changed”. Moreover, in the assay with Male Wistar rats (setting [3]), the “Sucrose intake in control animals” value was “no significant effect” and the “Sucrose intake in stressed animals” value is on record as “gradually reversed the CMS-induced deficit in sucrose intake”. Also, the “Disrupted PPI (prepulse inhibition)” value with prepulse inhibition (disruption produced by 5HT agonists in Wistar rats) is given as “restore disrupted PPI”. Moreover, the “5-HT2 agonist-induced deficits in prepulse inhibition and latent inhibition” value in the assay on prepulse inhibition (rat, in vivo) is “reversal”.
